Measurements: patent US7709495B2, “Methods and reagents for the treatment of inflammatory disorders” (CombinatoRx, Incorporated, priority 2003, dated 2010)
Like-named read-outs stand apart in the source and are kept apart here.

What was measured:
Format in all cases: cell-based
IL-1 secretion = IL-1 secretion assay (ELISA), LPS stimulated white blood cells; details: Homo sapiens, PBMC
Method: (§1) The compound dilution matrix was assayed for the suppression of phorbol 12-myristate 13 acetate/ionomycin stimulated IL-1 and TNFα secretion as well as the suppression of lipopolysaccharide-stimulated TNFα secretion from human white blood cells using the ELISA method, as described below.
(§2) A stock solution containing prednisolone (0.36 mg/ml) was prepared in DMSO. A stock solution containing ibudilast (1.84 mg/ml) was prepared in DMSO. Master plates were prepared for dilutions of the stock solutions above.
(§3) The final single agent plates were generated by transferring 1 μL of stock solution from the specific master plate to separate dilution plates containing 99 μL of media (RPMI; Gibco BRL, #11875-085), 10% fetal bovine serum (Gibco BRL, #25140-097), 2% penicillin/streptomycin (Gibco BRL, #15140-122)) using the Packard Mini-Trak liquid handler. The dilution plates were then mixed and a 10 μL aliquot transferred from each dilution plate to the final assay plate (polystyrene 384-well plate (NalgeNunc)), which had been pre-filled with 30 μL/well RPMI media containing 33 ng/mL phorbol 12-myristate 13-acetate (Sigma, P-1585) and 2.475 ng/mL ionomycin (Sigma, I-0634) or alternatively for the LPS stimulated assay RPMI media containing 2 μg/ml lipopolysaccharide (Sigma, L-4130).
The effects of test compound combinations on IL-1 secretion were assayed in white blood cells from human buffy coat stimulated with LPS, as follows. Human white blood cells from buffy coat were diluted 1:50 in media (RPMI; Gibco BRL, #11875-085), 10% fetal bovine serum (Gibco BRL, #25140-097), 2% penicillin/streptomycin (Gibco BRL, #15140-122)) and 50 μL of the diluted white blood cells was placed in each well of the final assay plate created in the above section. After 16-18 hours of incubation at 37° C. in a humidified incubator, the plate was centrifuged and the supernatant was transferred to a white opaque 384-well plate (NalgeNunc, MAXISORB) coated with an anti-IL-1 antibody (R&D Systems, MAB601). After a two-hour incubation, the plate was washed (Tecan Powerwasher 384) with PBS containing 0.1% Tween 20 and incubated for an additional one hour with a biotin labeled anti-IL-1 antibody (R&D Systems, BAF201) and horse radish peroxidase coupled to streptavidin (PharMingen, #554066). The plate was then washed again with 0.1% Tween 20/PBS, and an HRP-luminescent substrate was added to each well. Light intensity was then measured using a plate luminometer.
(§4) The percent inhibition (% I) for each well was calculated using the following formula: % I=[(avg. untreated wells−treated well)/(avg. untreated wells)]×100
(§5) The average untreated well value (avg. untreated wells) is the arithmetic mean of 30 wells from the same assay plate treated with vehicle alone.
IL-1 secretion was measured by ELISA as described above after stimulation with lipopolysaccharide. The effects of varying concentrations of ibudilast, prednisolone and a combination of ibudilast and prednisolone were compared to control wells.

[1] = system: white blood cells from human buffy coat; test: alamarBlue assay (toxicity/cell viability), PMA/ionomycin stimulated; details: PBMC, read-out: % Inhibition of Proliferation of PBMC PI
Method: as §2, §3, §4, §5
(§6) The toxicity of the test combination were assessed using alamarBlue® assayed in white blood cells from human buffy coat stimulated with LPS or phorbol 12-myistate 13-acetate and Ionomycin, as follows. Human white blood cells from buffy coat were diluted 1:50 in media (RPMI; Gibco BRL, #11875-085), 10% fetal bovine serum (Gibco BRL, #25140-097), 2% penicillin/streptomycin (Gibco BRL, #15140-122)) and 50 μL of the diluted white blood cells was placed in each well of the final assay plate created in the above section. After 16-18 hours of incubation at 37° C. with 5% CO2 in a humidified incubator, 5 μl of alamarBlue® (BioSource Intl. Inc., DAL 1100) was added to all of the wells. After 20-24 hours of incubation in 37° C. in a humidified incubator, fluorescence was then measured using a plate fluorometer.
Cell viability was measured using the alamarBlue® assay described above after stimulation with phorbol 12-myristate 13-acetate and ionomycin. The effects of varying concentrations of ibudilast, prednisolone and a combination of ibudilast and prednisolone were compared to control wells.

TNFα secretion = TNFα secretion assay (ELISA), lipopolysaccharide stimulated white blood cells; details: Homo sapiens, PBMC, read-out: % Inhibition TNFα PBMC LPS
Method: as §1, §2, §3
The effects of test compound combinations on TNFα secretion were assayed in white blood cells from human buffy coat stimulated with phorbol 12-myistate 13-acetate, or lipopolysaccharide as follows. Human white blood cells from buffy coat were diluted 1:50 in media (RPMI; Gibco BRL, #11875-085), 10% fetal bovine serum (Gibco BRL, #25140-097), 2% penicillin/streptomycin (Gibco BRL, #15140-122)) and 50 μL of the diluted white blood cells were placed in each well of the final assay plate created in the above section. After 16-18 hours of incubation at 37° C. with 5% CO2 in a humidified incubator, the plate was centrifuged and the supernatant transferred to a white opaque polystyrene 384 well plate (NalgeNunc, Maxisorb) coated with an anti-TNFα antibody (PharMingen, #551220). After a two-hour incubation, the plate was washed (Tecan Powerwasher 384) with PBS containing 0.1% Tween 20 and incubated for one additional hour with biotin labeled anti-TNFα antibody (PharMingen, #554511) and HRP coupled to streptavidin (PharMingen, #13047E). The plate was then washed again with 0.1% Tween 20/PBS. An HRP-luminescent substrate was added to each well, and the light intensity of each well was measured using a plate luminometer.
as §4, §5
TNFα secretion was measured by ELISA as described above after stimulation with lipopolysaccharide. The effects of varying concentrations of ibudilast, prednisolone and a combination of ibudilast and prednisolone were compared to control wells.

[2] = system: white blood cells from human buffy coat; test: alamarBlue assay (toxicity/cell viability), lipopolysaccharide stimulated; details: PBMC, read-out: % Inhibition of Proliferation of PBMC LPS
Method: as §2, §3, §4, §5, §6
Cell viability was measured the alamarBlue® asay described above after stimulation with lipopolysaccharide. The effects of varying concentrations of ibudilast, prednisolone and a combination of ibudilast and prednisolone were compared to control wells. These wells were stimulated with lipopolysaccharide, but not receive ibudilast or prednisolone.

Compound: CC(C)C(=O)c1c(C(C)C)nn2ccccc12 [Ibudilast, ibudilast]
- inhibition at 0.062 µM (IL-1 secretion; ibudilast 0.062 μM alone): 19%
- inhibition at 0.12 µM (IL-1 secretion; ibudilast 0.12 μM alone): -1.6%
- inhibition at 0.25 µM (IL-1 secretion; ibudilast 0.25 μM alone): 20%
- inhibition at 0.5 µM (IL-1 secretion; ibudilast 0.5 μM alone): 18%
- inhibition at 1 µM (IL-1 secretion; ibudilast 1 μM alone): 41%
- inhibition at 2 µM (IL-1 secretion; ibudilast 2 μM alone): 42%
- inhibition at 4 µM (IL-1 secretion; ibudilast 4 μM alone): 50%
- inhibition at 8 µM (IL-1 secretion; ibudilast 8 μM alone): 61%
- inhibition at 0.062 µM ([1]; ibudilast 0.062 μM alone): -1.5%
- inhibition at 0.12 µM ([1]; ibudilast 0.12 μM alone): -5.1%
- inhibition at 0.25 µM ([1]; ibudilast 0.25 μM alone): 0.84%
- inhibition at 0.5 µM ([1]; ibudilast 0.5 μM alone): -4%
- inhibition at 1 µM ([1]; ibudilast 1 μM alone): -1.9%
- inhibition at 2 µM ([1]; ibudilast 2 μM alone): 2.7%
- inhibition at 4 µM ([1]; ibudilast 4 μM alone): 3.3%
- inhibition at 8 µM ([1]; ibudilast 8 μM alone): 6.9%
- inhibition at 0.062 µM (TNFα secretion; ibudilast 0.062 μM alone): 17%
- inhibition at 0.12 µM (TNFα secretion; ibudilast 0.12 μM alone): 24%
- inhibition at 0.25 µM (TNFα secretion; ibudilast 0.25 μM alone): 41%
- inhibition at 0.5 µM (TNFα secretion; ibudilast 0.5 μM alone): 46%
- inhibition at 1 µM (TNFα secretion; ibudilast 1 μM alone): 58%
- inhibition at 2 µM (TNFα secretion; ibudilast 2 μM alone): 66%
- inhibition at 4 µM (TNFα secretion; ibudilast 4 μM alone): 70%
- inhibition at 8 µM (TNFα secretion; ibudilast 8 μM alone): 79%
- inhibition at 0.062 µM ([2]; ibudilast 0.062 μM alone): -4.6%
- inhibition at 0.12 µM ([2]; ibudilast 0.12 μM alone): -1.5%
- inhibition at 0.25 µM ([2]; ibudilast 0.25 μM alone): -1.8%
- inhibition at 0.5 µM ([2]; ibudilast 0.5 μM alone): -3.8%
- inhibition at 1 µM ([2]; ibudilast 1 μM alone): -2.9%
- inhibition at 2 µM ([2]; ibudilast 2 μM alone): 2.6%
- inhibition at 4 µM ([2]; ibudilast 4 μM alone): -2.4%
- inhibition at 8 µM ([2]; ibudilast 8 μM alone): 0.069%

Compound: C[C@]12C=CC(=O)C=C1CC[C@@H]1[C@@H]2[C@@H](O)C[C@@]2(C)[C@H]1CC[C@]2(O)C(=O)CO [Prednisolone, prednisolone]
- inhibition at 0.0078 µM (IL-1 secretion; prednisolone 0.0078 μM alone): 18%
- inhibition at 0.016 µM (IL-1 secretion; prednisolone 0.016 μM alone): 25%
- inhibition at 0.031 µM (IL-1 secretion; prednisolone 0.031 μM alone): 50%
- inhibition at 0.062 µM (IL-1 secretion; prednisolone 0.062 μM alone): 69%
- inhibition at 0.12 µM (IL-1 secretion; prednisolone 0.12 μM alone): 70%
- inhibition at 0.25 µM (IL-1 secretion; prednisolone 0.25 μM alone): 74%
- inhibition at 0.5 µM (IL-1 secretion; prednisolone 0.5 μM alone): 77%
- inhibition at 1 µM (IL-1 secretion; prednisolone 1 μM alone): 84%
- inhibition at 0.0078 µM ([1]; prednisolone 0.0078 μM alone): 4%
- inhibition at 0.016 µM ([1]; prednisolone 0.016 μM alone): 1%
- inhibition at 0.031 µM ([1]; prednisolone 0.031 μM alone): 1.7%
- inhibition at 0.062 µM ([1]; prednisolone 0.062 μM alone): -1.7%
- inhibition at 0.12 µM ([1]; prednisolone 0.12 μM alone): 3.2%
- inhibition at 0.25 µM ([1]; prednisolone 0.25 μM alone): 4.6%
- inhibition at 0.5 µM ([1]; prednisolone 0.5 μM alone): 0.19%
- inhibition at 1 µM ([1]; prednisolone 1 μM alone): 3.1%
- inhibition at 0.0078 µM (TNFα secretion; prednisolone 0.0078 μM alone): 0.085%
- inhibition at 0.016 µM (TNFα secretion; prednisolone 0.016 μM alone): 17%
- inhibition at 0.031 µM (TNFα secretion; prednisolone 0.031 μM alone): 24%
- inhibition at 0.062 µM (TNFα secretion; prednisolone 0.062 μM alone): 47%
- inhibition at 0.12 µM (TNFα secretion; prednisolone 0.12 μM alone): 57%
- inhibition at 0.25 µM (TNFα secretion; prednisolone 0.25 μM alone): 66%
- inhibition at 0.5 µM (TNFα secretion; prednisolone 0.5 μM alone): 68%
- inhibition at 1 µM (TNFα secretion; prednisolone 1 μM alone): 70%
- inhibition at 0.0078 µM ([2]; prednisolone 0.0078 μM alone): -1.7%
- inhibition at 0.016 µM ([2]; prednisolone 0.016 μM alone): -1.5%
- inhibition at 0.031 µM ([2]; prednisolone 0.031 μM alone): 0.64%
- inhibition at 0.062 µM ([2]; prednisolone 0.062 μM alone): -1.2%
- inhibition at 0.12 µM ([2]; prednisolone 0.12 μM alone): -1.8%
- inhibition at 0.25 µM ([2]; prednisolone 0.25 μM alone): -1.3%
- inhibition at 0.5 µM ([2]; prednisolone 0.5 μM alone): -3.3%
- inhibition at 1 µM ([2]; prednisolone 1 μM alone): -3.8%
